Test results: PubChem BioAssay (NCI)
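Following 48 hours of exposure in 96-well plates, responses at five concentrations were used to interpolate endpoints linearly. The concentration for full growth arrest is given as TGI.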

Tests used:
Assay in all cases: NCI anticancer screen, dose series, 48 h
COLO 205 colon = test system: COLO 205 colon
K-562 leukemia = test system: K-562 leukemia
ACHN renal = test system: ACHN renal
CCRF-CEM leukemia = test system: CCRF-CEM leukemia
UACC-257 melanoma = test system: UACC-257 melanoma
M14 melanoma = test system: M14 melanoma
LXFL 529 NSCLC = test system: LXFL 529 NSCLC
SNB-19 CNS = test system: SNB-19 CNS
EKVX NSCLC = test system: EKVX NSCLC
RPMI-8226 leukemia = test system: RPMI-8226 leukemia
UO-31 renal = test system: UO-31 renal
SN12C renal = test system: SN12C renal
SF-295 CNS = test system: SF-295 CNS
SK-MEL-28 melanoma = test system: SK-MEL-28 melanoma
SF-539 CNS = test system: SF-539 CNS
M19-MEL melanoma = test system: M19-MEL melanoma
NCI-H23 lung = test system: NCI-H23 lung
SK-MEL-2 melanoma = test system: SK-MEL-2 melanoma
RXF 393 renal = test system: RXF 393 renal
SNB-78 CNS = test system: SNB-78 CNS
HL-60(TB) leukemia = test system: HL-60(TB) leukemia
TK-10 renal = test system: TK-10 renal
OVCAR-5 ovarian = test system: OVCAR-5 ovarian
DMS 114 small cell lung = test system: DMS 114 small cell lung
A549 NSCLC = test system: A549 NSCLC
HCC-2998 colon = test system: HCC-2998 colon
NCI-H226 lung = test system: NCI-H226 lung
SF-268 CNS = test system: SF-268 CNS
DLD-1 colon = test system: DLD-1 colon
HT29 colon = test system: HT29 colon
LOX IMVI melanoma = test system: LOX IMVI melanoma
SR leukemia = test system: SR leukemia
HCT-15 colon = test system: HCT-15 colon
NCI-H460 lung = test system: NCI-H460 lung
OVCAR-8 ovarian = test system: OVCAR-8 ovarian
SK-OV-3 ovarian = test system: SK-OV-3 ovarian
MOLT-4 leukemia = test system: MOLT-4 leukemia
786-0 renal = test system: 786-0 renal
OVCAR-3 ovarian = test system: OVCAR-3 ovarian
SK-MEL-5 melanoma = test system: SK-MEL-5 melanoma
CAKI-1 renal = test system: CAKI-1 renal
KM20L2 colon = test system: KM20L2 colon
U251 CNS = test system: U251 CNS
DMS 273 small cell lung = test system: DMS 273 small cell lung
SNB-75 CNS = test system: SNB-75 CNS
HOP-62 NSCLC = test system: HOP-62 NSCLC
NCI-H522 lung = test system: NCI-H522 lung
MALME-3M melanoma = test system: MALME-3M melanoma
SW-620 colon = test system: SW-620 colon
HCT-116 colon = test system: HCT-116 colon

Question: COC(=O)C1=C(C(=O)OC)C2C(C)=CC(C)=CN2C(C#N)=C(SC)S1 (stereo not given) was tested. Which TGI (COLO 205 colon) did it give?
Answer: 34.4 µM

Question: What about the TGI (K-562 leukemia) of the same compound?
Answer: 55.3 µM

Question: What about the TGI (ACHN renal) of the same compound?
Answer: 60.5 µM

Question: And the TGI (CCRF-CEM leukemia)?
Answer: 56.5 µM

Question: What about the TGI (UACC-257 melanoma) of the same compound?
Answer: 64.3 µM

Question: What about the TGI (M14 melanoma) of the same compound?
Answer: 35.2 µM

Question: What about the TGI (LXFL 529 NSCLC) of the same compound?
Answer: 37.6 µM

Question: What about the TGI (SNB-19 CNS) of the same compound?
Answer: > 100 µM

Question: And the TGI (EKVX NSCLC)?
Answer: 64.9 µM

Question: What about the TGI (RPMI-8226 leukemia) of the same compound?
Answer: 64.1 µM

Question: What about the TGI (UO-31 renal) of the same compound?
Answer: 26.8 µM

Question: And the TGI (SN12C renal)?
Answer: 52.6 µM

Question: And the TGI (SF-295 CNS)?
Answer: > 100 µM

Question: And the TGI (SK-MEL-28 melanoma)?
Answer: 41.8 µM

Question: And the TGI (SF-539 CNS)?
Answer: 61.4 µM

Question: What about the TGI (M19-MEL melanoma) of the same compound?
Answer: 33.8 µM

Question: What about the TGI (NCI-H23 lung) of the same compound?
Answer: 36.4 µM

Question: What about the TGI (SK-MEL-2 melanoma) of the same compound?
Answer: 45.8 µM

Question: And the TGI (RXF 393 renal)?
Answer: 30.6 µM

Question: And the TGI (SNB-78 CNS)?
Answer: > 100 µM

Question: What about the TGI (HL-60(TB) leukemia) of the same compound?
Answer: 42.7 µM

Question: And the TGI (TK-10 renal)?
Answer: 69.8 µM

Question: And the TGI (OVCAR-5 ovarian)?
Answer: 84.7 µM

Question: What about the TGI (DMS 114 small cell lung) of the same compound?
Answer: 54.7 µM

Question: What about the TGI (A549 NSCLC) of the same compound?
Answer: > 100 µM

Question: What about the TGI (HCC-2998 colon) of the same compound?
Answer: 94.5 µM

Question: What about the TGI (NCI-H226 lung) of the same compound?
Answer: 39.9 µM

Question: And the TGI (SF-268 CNS)?
Answer: 56.8 µM

Question: What about the TGI (DLD-1 colon) of the same compound?
Answer: 49.2 µM

Question: What about the TGI (HT29 colon) of the same compound?
Answer: 44.6 µM

Question: What about the TGI (LOX IMVI melanoma) of the same compound?
Answer: 35.4 µM

Question: What about the TGI (SR leukemia) of the same compound?
Answer: 50.5 µM

Question: What about the TGI (HCT-15 colon) of the same compound?
Answer: 44 µM

Question: And the TGI (NCI-H460 lung)?
Answer: > 100 µM

Question: What about the TGI (OVCAR-8 ovarian) of the same compound?
Answer: 65.9 µM

Question: What about the TGI (SK-OV-3 ovarian) of the same compound?
Answer: > 100 µM

Question: What about the TGI (MOLT-4 leukemia) of the same compound?
Answer: 77.3 µM

Question: And the TGI (786-0 renal)?
Answer: 73.2 µM

Question: And the TGI (OVCAR-3 ovarian)?
Answer: 72.7 µM

Question: What about the TGI (SK-MEL-5 melanoma) of the same compound?
Answer: 30.7 µM

Question: And the TGI (CAKI-1 renal)?
Answer: 41.5 µM

Question: And the TGI (KM20L2 colon)?
Answer: 86.7 µM

Question: What about the TGI (U251 CNS) of the same compound?
Answer: > 100 µM

Question: What about the TGI (DMS 273 small cell lung) of the same compound?
Answer: > 100 µM

Question: And the TGI (SNB-75 CNS)?
Answer: > 100 µM

Question: What about the TGI (HOP-62 NSCLC) of the same compound?
Answer: > 100 µM

Question: And the TGI (NCI-H522 lung)?
Answer: 46.7 µM

Question: And the TGI (MALME-3M melanoma)?
Answer: 48.3 µM

Question: And the TGI (SW-620 colon)?
Answer: 42.7 µM

Question: And the TGI (HCT-116 colon)?
Answer: 29.6 µM
